Assays:
Aphis fabae = assay: Test against aphid, leaf dip method (Aphis fabae); type: in vivo; conditions: foliar; for mortality at 200 µg/mL: 200 mg/L; for mortality at 200 µg/mL / mortality at 500 µg/mL / mortality at 12.5 µg/mL / mortality at 50 µg/mL: after 24 hours, read-out: Activity (mortality) level against Aphis fabae; for mortality at 500 µg/mL: 500 mg/L; for mortality at 12.5 µg/mL: 12.5 mg/L; for mortality at 50 µg/mL: 50 mg/L; for LC50: further test, read-out: LC50 against Aphis fabae
Protocol: For evaluating the activity of the compounds of this invention against Homoptera pests, Aphis fabae, wheat aphids, etc. were selected as the test insects, and the activity of the compounds of this invention against aphids was measured by leaf dip method indoors.
Leaf dip method (Aphis fabae): the test compound was dissolved in an appropriate solvent such as N,N-dimethylformamide, and then diluted with 0.2% aqueous solution of Tween 80 to the desired concentration, Those without the test compounds were set as blank controls, the treatments were replicated 3 times. Horsebean seedlings with no less than twenty 3-day-old Aphis fabae per plant was cut from the stem, 5 horsebean seedlings with the insects were dipped in the test solution for 5 seconds, then inserted into a sponge filled with water after sucked dry using filter paper, then covered with a glass tube and placed in a chamber for culture. After 24 hours, the number of living and dead insects were investigated and the results were averaged. […]

[1] = tested on: Armyworm (Mythimna separata (Walker)); assay: Test against armyworm, Potter tower method; type: in vivo; conditions: Mythimna separata, third-instar larvae, after 72 hours, read-out: Activity (mortality) level against armyworm; for mortality at 50 µg/mL: 50 mg/L; for mortality at 500 µg/mL: 500 mg/L; for mortality at 12.5 µg/mL: 12.5 mg/L
Protocol: Potter tower method: the test compound was dissolved in an appropriate solvent such as N,N-dimethylformamide, and then diluted with 0.2% aqueous solution of Tween 80 to the desired concentration, Those without the test compounds were set as blank controls. The fresh and tender corn leaves were taken and cut into fragments of basically the same size, then put into a Petri dish (diameter 90 mm) padded with filter paper in advance. Ten third-instar larvae of test insects were transferred into the dish and then placed under the Potter spray tower for being sprayed, each concentration treatment was sprayed at the amount of 1 mL and replicated 3 times. The dish was covered and then placed in a chamber for culture and observed regularly, after 72 hours, the dead insects was investigated and recorded and the mean mortality was calculated. […]

For `CCN(CC)C(=S)c1cc(Cl)cc(Cl)c1N(C)C(=S)c1cc(Br)nn1-c1ncccc1Cl` [Compound 24, N-[2,4-dichloro-6-[(diethylamino)thioxomethyl]phenyl]-N-methyl-1-(3-chloro-2-pyridinyl)-3-bromo-1H-pyrazole-5-carbothioamide], the mortality at 200 µg/mL (Aphis fabae) was 90 to 100%, the mortality at 500 µg/mL (Aphis fabae) was 90 to 100% and the mortality at 50 µg/mL [1] was 90 to 100%. The mortality at 500 µg/mL [1] was 90 to 100%.
With `CNC(=O)c1cc(Cl)cc(Br)c1N(C)C(=O)c1cc(Br)nn1-c1ncccc1Cl` [Compound 25, N-[2-bromo-4-chloro-6-[(methylamino)carbonyl]phenyl]-N-methyl-1-(3-chloro-2-pyridinyl)-3-bromo-1H-pyrazole-5-carboxamide] the mortality at 12.5 µg/mL (Aphis fabae) was 90 to 100%, the mortality at 50 µg/mL (Aphis fabae) was 90 to 100% and the mortality at 200 µg/mL (Aphis fabae) was 90 to 100%. For the same molecule, the mortality at 500 µg/mL (Aphis fabae) was 90 to 100%, the mortality at 12.5 µg/mL [1] was 90 to 100% and the mortality at 50 µg/mL [1] was 90 to 100%. The mortality at 500 µg/mL [1] was 90 to 100%.
In the case of `CCNC(=O)c1cc(Cl)cc(Br)c1N(C)C(=O)c1cc(Br)nn1-c1ncccc1Cl` [Compound 26, N-[2-bromo-4-chloro-6-[(ethylamino)carbonyl]phenyl]-N-methyl-1-(3-chloro-2-pyridinyl)-3-bromo-1H-pyrazole-5-carboxamide], the mortality at 12.5 µg/mL (Aphis fabae) was 90 to 100%, the mortality at 50 µg/mL (Aphis fabae) was 90 to 100% and the mortality at 200 µg/mL (Aphis fabae) was 90 to 100%. It also gave a mortality at 500 µg/mL (Aphis fabae) of 90 to 100%, a mortality at 12.5 µg/mL [1] of 90 to 100% and a mortality at 50 µg/mL [1] of 90 to 100%. For the same molecule, the mortality at 500 µg/mL [1] was 90 to 100%.
`CCCNC(=O)c1cc(Cl)cc(Br)c1N(C)C(=O)c1cc(Br)nn1-c1ncccc1Cl` [Compound 27, N-[2-bromo-4-chloro-6-[(propylamino)carbonyl]phenyl]-N-methyl-1-(3-chloro-2-pyridinyl)-3-bromo-1H-pyrazole-5-carboxamide] gave a mortality at 12.5 µg/mL (Aphis fabae) of 90 to 100%, a mortality at 50 µg/mL (Aphis fabae) of 90 to 100% and a mortality at 200 µg/mL (Aphis fabae) of 90 to 100%. The mortality at 500 µg/mL (Aphis fabae) was 90 to 100%, the mortality at 50 µg/mL [1] was 90 to 100% and the mortality at 500 µg/mL [1] was 90 to 100%.
In the case of `CC(C)NC(=O)c1cc(Cl)cc(Br)c1N(C)C(=O)c1ccnn1-c1ncccc1Cl` [Compound 28, N-[2-bromo-4-chloro-6-[(isopropylamino)carbonyl]phenyl]-N-methyl-1-(3-chloro-2-pyridinyl)-1H-pyrazole-5-carboxamide], the mortality at 200 µg/mL (Aphis fabae) was 90 to 100%, the mortality at 500 µg/mL (Aphis fabae) was 90 to 100% and the mortality at 12.5 µg/mL [1] was 90 to 100%. The mortality at 50 µg/mL [1] was 90 to 100% and the mortality at 500 µg/mL [1] was 90 to 100%.
`CN(C(=O)c1cc(Br)nn1-c1ncccc1Cl)c1c(Br)cc(Cl)cc1C(=O)NC1CC1` [Compound 29, N-[2-bromo-4-chloro-6-[(cyclopropylamino)carbonyl]phenyl]-N-methyl-1-(3-chloro-2-pyridinyl)-3-bromo-1H-pyrazole-5-carboxamide] was tested, and the mortality at 200 µg/mL (Aphis fabae) was 90 to 100%, the mortality at 500 µg/mL (Aphis fabae) was 90 to 100% and the mortality at 12.5 µg/mL [1] was 90 to 100%. The mortality at 50 µg/mL [1] was 90 to 100% and the mortality at 500 µg/mL [1] was 90 to 100%.
Work on `CCCCNC(=O)c1cc(Cl)cc(Br)c1N(C)C(=O)c1ccnn1-c1ncccc1Cl` [Compound 30, N-[2-bromo-4-chloro-6-[(butylamino)carbonyl]phenyl]-N-methyl-1-(3-chloro-2-pyridinyl)-1H-pyrazole-5-carboxamide] yielded a mortality at 200 µg/mL (Aphis fabae) of 90 to 100%, a mortality at 500 µg/mL (Aphis fabae) of 90 to 100% and a mortality at 500 µg/mL [1] of 90 to 100%.
`CN(C)C(=O)c1cc(Cl)cc(Br)c1N(C)C(=O)c1cc(Br)nn1-c1ncccc1Cl` [Compound 31, N-[2-bromo-4-chloro-6-[(dimethylamino)carbonyl]phenyl]-N-methyl-1-(3-chloro-2-pyridinyl)-3-bromo-1H-pyrazole-5-carboxamide] showed a mortality at 12.5 µg/mL (Aphis fabae) of 90 to 100%, a mortality at 50 µg/mL (Aphis fabae) of 90 to 100% and a mortality at 200 µg/mL (Aphis fabae) of 90 to 100%. For the same molecule, the mortality at 500 µg/mL (Aphis fabae) was 90 to 100%, the LC50 (Aphis fabae) was < 1 µg/mL and the mortality at 500 µg/mL [1] was 90 to 100%.
`CCCN(C)C(=O)c1cc(Cl)cc(Br)c1N(C)C(=O)c1cc(Br)nn1-c1ncccc1Cl` [Compound 33, N-[2-bromo-4-chloro-6-[(methyl(propyl)amino)carbonyl]phenyl]-N-methyl-1-(3-chloro-2-pyridinyl)-3-bromo-1H-pyrazole-5-carboxamide] was tested, and the mortality at 12.5 µg/mL (Aphis fabae) was 90 to 100%, the mortality at 50 µg/mL (Aphis fabae) was 90 to 100% and the mortality at 200 µg/mL (Aphis fabae) was 90 to 100%. It also gave a mortality at 500 µg/mL (Aphis fabae) of 90 to 100%, a mortality at 50 µg/mL [1] of 90 to 100% and a mortality at 500 µg/mL [1] of 90 to 100%.
`CC(C)N(C)C(=O)c1cc(Cl)cc(Br)c1N(C)C(=O)c1cc(Br)nn1-c1ncccc1Cl` [Compound 34, N-[2-bromo-4-chloro-6-[(methyl(isopropyl)amino)carbonyl]phenyl]-N-methyl-1-(3-chloro-2-pyridinyl)-3-bromo-1H-pyrazole-5-carboxamide] was tested, and the mortality at 12.5 µg/mL (Aphis fabae) was 90 to 100%, the mortality at 50 µg/mL (Aphis fabae) was 90 to 100% and the mortality at 200 µg/mL (Aphis fabae) was 90 to 100%. The mortality at 500 µg/mL (Aphis fabae) was 90 to 100%, the LC50 (Aphis fabae) was < 1 µg/mL and the mortality at 50 µg/mL [1] was 90 to 100%. It also gave a mortality at 500 µg/mL [1] of 90 to 100%.
`CN(C(=O)c1cc(Br)nn1-c1ncccc1Cl)c1c(Br)cc(Cl)cc1C(=O)N(C)C1CC1` [Compound 35, N-[2-bromo-4-chloro-6-[(methyl(cyclopropyl)amino)carbonyl]phenyl]-N-methyl-1-(3-chloro-2-pyridinyl)-3-bromo-1H-pyrazole-5-carboxamide] gave a mortality at 12.5 µg/mL (Aphis fabae) of 90 to 100%, a mortality at 50 µg/mL (Aphis fabae) of 90 to 100% and a mortality at 200 µg/mL (Aphis fabae) of 90 to 100%. The mortality at 500 µg/mL (Aphis fabae) was 90 to 100%, the mortality at 50 µg/mL [1] was 90 to 100% and the mortality at 500 µg/mL [1] was 90 to 100%.
`CN(C(=O)c1cc(Br)nn1-c1ncccc1Cl)c1c(Br)cc(Cl)cc1C(=O)N(C)C(C)(C)C` [Compound 36, N-[2-bromo-4-chloro-6-[(methyl(tert-butyl)amino)carbonyl]phenyl]-N-methyl-1-(3-chloro-2-pyridinyl)-3-bromo-1H-pyrazole-5-carboxamide] showed a mortality at 50 µg/mL (Aphis fabae) of 90 to 100%, a mortality at 200 µg/mL (Aphis fabae) of 90 to 100% and a mortality at 500 µg/mL (Aphis fabae) of 90 to 100%. It also gave a mortality at 50 µg/mL [1] of 90 to 100% and a mortality at 500 µg/mL [1] of 90 to 100%.
With `CCN(CC)C(=O)c1cc(Cl)cc(Br)c1N(C)C(=O)c1cc(Br)nn1-c1ncccc1Cl` [Compound 37, N-[2-bromo-4-chloro-6-[(diethylamino)carbonyl]phenyl]-N-methyl-1-(3-chloro-2-pyridinyl)-3-bromo-1H-pyrazole-5-carboxamide] the mortality at 12.5 µg/mL (Aphis fabae) was 90 to 100%, the mortality at 50 µg/mL (Aphis fabae) was 90 to 100% and the mortality at 200 µg/mL (Aphis fabae) was 90 to 100%. It also gave a mortality at 500 µg/mL (Aphis fabae) of 90 to 100%, a mortality at 12.5 µg/mL [1] of 90 to 100% and a mortality at 50 µg/mL [1] of 90 to 100%. For the same molecule, the mortality at 500 µg/mL [1] was 90 to 100%.
`CCN(C(=O)c1cc(Br)nn1-c1ncccc1Cl)c1c(Br)cc(Cl)cc1C(=O)N(C)C` [Compound 38, N-[2-bromo-4-chloro-6-[(dimethylamino)carbonyl]phenyl]-N-ethyl-1-(3-chloro-2-pyridinyl)-3-bromo-1H-pyrazole-5-carboxamide] gave a mortality at 12.5 µg/mL (Aphis fabae) of 90 to 100%, a mortality at 50 µg/mL (Aphis fabae) of 90 to 100% and a mortality at 200 µg/mL (Aphis fabae) of 90 to 100%. It also gave a mortality at 500 µg/mL (Aphis fabae) of 90 to 100%, a mortality at 50 µg/mL [1] of 90 to 100% and a mortality at 500 µg/mL [1] of 90 to 100%.
`CCN(C)C(=O)c1cc(Cl)cc(Br)c1N(CC)C(=O)c1cc(Br)nn1-c1ncccc1Cl` [Compound 39, N-[2-bromo-4-chloro-6-[(methyl(ethyl)amino)carbonyl]phenyl]-N-ethyl-1-(3-chloro-2-pyridinyl)-3-bromo-1H-pyrazole-5-carboxamide] was tested, and the mortality at 12.5 µg/mL (Aphis fabae) was 90 to 100%, the mortality at 50 µg/mL (Aphis fabae) was 90 to 100% and the mortality at 200 µg/mL (Aphis fabae) was 90 to 100%. For the same molecule, the mortality at 500 µg/mL (Aphis fabae) was 90 to 100%, the mortality at 50 µg/mL [1] was 90 to 100% and the mortality at 500 µg/mL [1] was 90 to 100%.

Reference: patent US20220132846A1, “1-PYRIDYL-PYRAZOLYL AMIDE COMPOUNDS AND PREPARATION AND USES THEREOF” (HUNAN RESEARCH INSTITUTE OF CHEMICAL INDUSTRY CO., LTD., priority 2019, published 2022)
